Measured values reported in patent US10098974B2, “Catalytic radiofluorination” (priority 2004, dated 2018).
Where two headings read alike, the source gives them in different places.

Legend:
C-6BAG glioma = conditions: period of 240 minutes
C6 glioma cell line = conditions: from maximum accumulation at 30 minutes
MCF-7 = conditions: MCF-7, period of 240 minutes
[1] = rat, microPET
Experimental: (§1) Rats (250-300 grams) or rabbits (3-4 Kg) were anesthetized and placed ventrally to the imaging position and 0.4-1 mCi of the FTPP was injected into the vain. Three-dimensional dynamic data were acquired in list mode for one hour starting from the injection of the radiolabeled ligand.
(§2) PET imaging was conducted with a microPET, P4 system (Concorde Microsystems Inc, Knoxville, Tenn.). The length of the field of view is 8 cm and the diameter is 22 cm allowing entire upper body imaging of the rat or rabbit during a single acquisition. The imaging parameters of this system are in-plane and axial resolution of 1.2 mm full width of photopeak measured at half maximal count.

[2] = Biodistribution of FTTP in rats after intravenous administration
[3] = rabbit
Experimental: as §1, §2
The rabbit was anesthetized, placed in the microPET camera (body marks in the camera positioning were made) and sequential images were obtained for ten minutes following the administration of 3 mCi of N-13-ammonia (FIG. 10). One hour later, FTPP was injected followed by 60 minute sequential imaging of the rabbit (FIG. 11). Image corrections for the remaining N-13-ammonia activity were made with an appropriate program. One day later, the same rabbit underwent an LAD occlusion protocol, positioned in the same camera field of view and the above dual agent imaging sequence was repeated.

[4] = 5 min post administration (Table 1)
[5] = 30 min post administration (Table 1)
[6] = 60 min post administration (Table 1)

## [I-125]-p-iodophenyltriphenylphosponium nitrate [TPPI]
C-6BAG glioma
  cell retention: High retention
C6 glioma cell line
  cell retention: partial washout
MCF-7
  cell retention: High retention
CV-1 normal cell line
  cell uptake: no significant uptake

## O=[N+]([O-])[O-].[18F]c1ccc([P+](c2ccccc2)(c2ccccc2)c2ccccc2)cc1 [FTTP, [F-18]-(4-fluorophenyl)triphenylphosphonium nitrate]
[1]
  time after injection at which heart activity reaches a plateau: 1 min
[2]; [4]
  Heart/Blood ratio: 11 % ID/g
  Heart/Liver ratio: 5 % ID/g
  Heart/Lung ratio: 2 % ID/g
[2]; [5]
  Heart/Blood ratio: 75 % ID/g
  Heart/Liver ratio: 8 % ID/g
  Heart/Lung ratio: 5 % ID/g
[2]; [6]
  Heart/Blood ratio: 70 % ID/g
  Heart/Liver ratio: 8 % ID/g
  Heart/Lung ratio: 4 % ID/g
[2]; iv, 5 min
  Bone accumulation (indication of defluorination): 0.31 ID/g
  Heart-to-lung ratio: 2.4
  Lung activity: 0.69 ID/g
  accumulation in heart relative to blood: 11 fold
  accumulation in heart relative to liver: 5 fold
  accumulation in the heart: 1.64 ID/g
  liver uptake: 0.18 ID/g
[2]; iv, 30 min
  Heart-to-lung ratio: 5.0
  Lung activity: 0.30 ID/g
  liver uptake: 0.17 ID/g
  uptake of radioactivity in the heart: 1.5 ID/g
[2]; iv, 60 min
  Bone accumulation (indication of defluorination): 0.39 ID/g
  Heart-to-lung ratio: 3.2
  Lung activity: 0.38 ID/g
  liver uptake: 0.17 ID/g
[3]; late images at 60 min
  myocardial retention: high myocardial retention
[3]; microPET
  time after injection at which heart activity reaches a plateau: 1 min
